Consider eleven compounds from US20130252930A1 (BIOMARIN PHARMACEUTICAL INC., priority 2010, published 2013).

Each structure is given as a SMILES string. pIC50: −log10 of the molar value. Like-named read-outs stand apart in the source and are kept apart here.

Series [1] concerns rat Cyp11B enzyme (rat adrenal mitochondria). The experiment in a line: CYP11B enzymatic assay (% inhibition at 100 nM) (Biological Example 9). The series is classed as biochemical. Conditions: compound at 100 nM. On the procedure:
Adrenals excised from Sprague Dawley rats were homogenized, and mitochondria fraction were prepared by a series of centrifugation as described in Shuji Ohno, et al. J. of Steroid Biochemistry & Molecular Biology 2002, 80, 355-363. Prepared mitochondria protein was washed and resuspended in Buffer B (0.21 M mannitol, 70 mM sucrose, 5 mM MgCl2, 0.5 mM CaCl2, 20 mM Tris-HCl (pH 7.4) and 1 mM DTT, […]). The protein concentration was determined by BCA assay and stored as 10 μL aliquots at −80° C.
The rat Cyp11B enzyme assay was performed in 96-well plates. Typical assays were carried out in total 50 μL volume that included test compounds at 100 nM concentration, 1× Buffer B, 0.5 mM NADPH, 0.1 μM 11-deoxycortisol, and 2 μL of prepared rat adrenal mitochondria (added last). Reaction without test compound served as positive control and reaction without NADPH served as negative control. Reactions were allowed to incubate at 37° C. for 60 min with gentle shaking. The reaction was stopped by directly applying the enzymatic reaction mixture (1:5 diluted in ELISA assay buffer) to ELISA plate for evaluation of cortisol concentration according to manufacturer's protocol (Assay Design).
The mean absorbance value for each sample was used to determine the corresponding concentration from the standard curve. Amount of cortisol in the negative control (reaction that dis not include NADPH) was subtracted from total cortisol. Percent inhibition (inhibition %) of the compound was calculated using normalized cortisol concentration based on following formula: 100−([Cortisol] of compound/[Cortisol] of positive control *100).

For series [2], the target named is T1, CYP17 (human testicular microsome) (Homo sapiens, UniProt P05093).
T1 construct: using microsomal fraction from human testis (Celsis Cat #S00110) as the enzyme source; tissue Celsis S00110; host or cells: human testis microsomal fraction
T1 sequence (P05093 1-508): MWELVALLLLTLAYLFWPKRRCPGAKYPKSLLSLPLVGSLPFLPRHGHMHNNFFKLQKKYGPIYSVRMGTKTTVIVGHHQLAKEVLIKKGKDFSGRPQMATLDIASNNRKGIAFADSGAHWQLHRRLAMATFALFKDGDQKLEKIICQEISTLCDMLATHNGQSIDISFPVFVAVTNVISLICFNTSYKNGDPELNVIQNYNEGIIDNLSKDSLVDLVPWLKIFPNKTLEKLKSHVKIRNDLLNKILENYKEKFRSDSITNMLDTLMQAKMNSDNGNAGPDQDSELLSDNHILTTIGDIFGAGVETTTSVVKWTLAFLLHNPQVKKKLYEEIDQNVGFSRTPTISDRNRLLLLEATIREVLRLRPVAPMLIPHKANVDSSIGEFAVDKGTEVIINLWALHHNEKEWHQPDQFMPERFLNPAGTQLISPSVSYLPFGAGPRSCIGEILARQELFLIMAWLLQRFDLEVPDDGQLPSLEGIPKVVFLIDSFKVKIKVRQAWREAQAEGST
The experiment in a line: CYP17 enzymatic assay (% inhibition at 1 nM) (Biological Example 12). The series is classed as biochemical.

The target of series [3] is T2, Cyp21 enzyme (Human HEK 293-Cyp21 stable transfected cells) (Homo sapiens, UniProt P08686).
T2 construct: expressed in transfected cells
T2 sequence (P08686 1-495): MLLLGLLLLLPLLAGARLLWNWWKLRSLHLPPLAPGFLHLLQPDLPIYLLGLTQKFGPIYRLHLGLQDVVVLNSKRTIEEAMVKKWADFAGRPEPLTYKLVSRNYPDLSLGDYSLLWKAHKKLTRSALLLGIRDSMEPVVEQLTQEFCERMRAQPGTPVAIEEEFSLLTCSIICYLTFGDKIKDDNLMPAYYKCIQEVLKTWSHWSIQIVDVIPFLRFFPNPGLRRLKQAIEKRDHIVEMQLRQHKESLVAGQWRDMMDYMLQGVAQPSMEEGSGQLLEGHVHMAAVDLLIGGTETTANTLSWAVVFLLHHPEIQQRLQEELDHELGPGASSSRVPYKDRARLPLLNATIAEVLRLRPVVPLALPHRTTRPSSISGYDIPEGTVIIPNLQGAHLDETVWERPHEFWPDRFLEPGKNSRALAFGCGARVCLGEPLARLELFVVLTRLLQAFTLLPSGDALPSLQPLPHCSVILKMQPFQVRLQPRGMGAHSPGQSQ
The experiment in a line: CYP21-HEK293 enzymatic assay (IC50) (Biological Example 11). The series is classed as cell-based. The note with it: HEK 293-Cyp21 cells.
Experimental: This assay was used to determine compound activity against Cyp21 enzyme. […] The next day, 20 μL medium was carefully removed and 10 μL of 10× pre-made compounds in DMEM+10% FBS+10% methanol was transferred to the wells to final concentrations of 1000, 100, 10, 1, or 0.1 nM. Mock treatment was 1% methanol in growth media and the cells were left at 37° C., 5% CO2 for 5 hr. After the incubation, 10 μL of substrate progesterone (Sigma) was added to the wells to make a final concentration of 10 μM. The cells were incubated the cells at 37° C. for 20 hr. At the end of incubation, 90 μL of conditioned media was removed to measure DOC level by ELISA.
The next day, the plates were washed twice with 250 μl of wash solution (0.015M PBS pH 7.4 containing 0.05% Tween 20). After being washed, the wells were blocked with 250 μL blocking buffer (3% BSA in 0.025M PBS, pH 7.4) at 37° C. for 2 h. The plates were washed again 3 times as before, and then 90 μL of sample /standards (prepared in complete growth media) was added into the appropriate wells followed by 10 μL of antibody solution (1:450 rabbit anti-DOC in 0.6% BSA/PBS). The plates were incubated at room temperature for 2 h on a shaker. The contents of the wells were removed and the plate was washed 4 times. After the final wash, 100 μL of secondary antibody (1:12000 HRP-goat-anti-rabbit IgG conjugate 0.6% BSA/PBS) was added into each well. […] The plate was washed again 4 times and 100 μL of TMB substrate solution was added to each well. The plate was incubated at room temperature for 10 min. 100 μL of stop solution was added to each well and the optical density was read at 450 nm.
The mean absorbance value for each sample was used to determine the corresponding concentration from the standard curve. Data was analyzed with “log(antagonist) vs response variable slope” under “non-linear regression analysis” using Prism5 software.

The nature of series [4]: Human liver microsome stability assay (Biological Example 8b). The note with it: liver microsomes, pH 7.4. For orientation: Microsomes from liver hold many membrane-bound enzymes, among them those of drug oxidation.
Experimental: The reaction was started with addition of excess NADPH (5 mg/mL, 15 μL in 0.1 M potassium phosphate buffer, 1.0 mM EDTA, pH 7.4), the total volume is 45 μL (compound final concentration was 1 μM). […] 50 μL of the supernatant was transferred from each well into a 96-well sample plate containing 50 μL of ultra-pure water (Millipore) for LC-MS/MS analysis.
The target of series [5] is T1, CYP17 (human testicular microsome). The experiment in a line: CYP17 enzymatic assay (IC50) (Biological Example 4). The series is classed as biochemical.
In series [6] the target is T3, CYP17 (H295R cells) (Homo sapiens, UniProt P05093).
T3 construct: endogenous in cells; host or cells: H295R cells
T3 sequence (P05093 1-508): T1 sequence (P05093 1-508)
The experiment in a line: CYP17 cellular assay (IC50), testosterone in H295R cells (Biological Example 7). The format is cell-based. The note with it: H295R cells. The essentials: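 H295R cells cultured 24 h, then exposed to compound at 100, 10, 1, 0.1 nM final in serum-free DMEM/F-12 with ITS+ and 0.1% methanol for 24 h at 37 °C. Medium testosterone measured by ELISA and plotted against compound concentration.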

Setting [7] is: compound at 1 nM, read-out: CYP17 enzymatic assay % inhibition at 1 nM (Biological Example No. 12).
The mark [8] stands for this setting: compound at 1 nM, read-out: Biological Example No. 12: CYP17 enzymatic assay % inhibition at 1 nM.
[9] abbreviates: read-out: CYP21-HEK293 enzymatic assay IC50 (Biological Example No. 11).
Where [10] appears, read: human testicular microsome, read-out: CYP17 enzymatic assay IC50 (Biological Example No. 4).
Where [11] appears, read: testosterone, read-out: CYP17 cellular assay IC50 (Biological Example No. 7).

In the case of `Cc1cncc(C2=CCC3C4CC=C5N(C)C(=O)C[C@]5(C)C4CC[C@]23C)c1` (stereo partly drawn) [Compound 188, (3aR,5aS)-1,3a,5a-trimethyl-6-(5-methylpyridin-3-yl)-3,3a,3b,4,5,5a,8,8a,8b,9-decahydroindeno[5,4-e]indol-2(1H)-one], the “CYP11B enzymatic assay % inhibition at 100 nM (Biological Example No. 9)” value in series [1] is listed as “T (T means the compound had a percent inhibition of less than 32% when tested at 100 nM)”. Besides, the inhibition at 0.001 µM in series [2] (setting [7]) lay within 10 to 50%.
Consider `CN1C(=O)CC[C@@]2(C)C1=CCC1C2CC[C@]2(C)C(c3cncc(F)c3)=CCC12` (stereo partly drawn) [Compound 428, (4aR,6aS)-7-(5-fluoropyridin-3-yl)-1,4a,6a-trimethyl-4,4a,4b,5,6,6a,9,9a,9b,10-decahydro-1H-indeno[5,4-f]quinolin-2(3H)-one], for which the “Biological Example No. 9: CYP11B enzymatic assay % inhibition at 100 nM” value in series [1] is “U (U means the compound had a percent inhibition of greater than or equal to 32%)”. The inhibition at 0.001 µM in series [2] (setting [8]) lay in the range of 10 to 50%.
For the compound `CCOc1cncc(C2=CCC3C4CC=C5N(C)C(=O)C[C@]5(C)C4CC[C@]23C)c1` (stereo partly drawn) [Compound 189, (3aR,5aS)-6-(5-ethoxypyridin-3-yl)-1,3a,5a-trimethyl-3,3a,3b,4,5,5a,8,8a,8b,9-decahydroindeno[5,4-e]indol-2(1H)-one], in series [1], the “CYP11B enzymatic assay % inhibition at 100 nM (Biological Example No. 9)” value is on record as “U (U means the compound had a percent inhibition of greater than or equal to 32%)”. Besides, in series [2] (setting [7]), the inhibition at 0.001 µM lay in the range of 10 to 50%.
In the same order, the values of `CC(=O)N1CCC[C@@]2(C)[C@@H](CC[C@@H]3[C@@H]2CC[C@]2(C)C(n4ccnc4)=CC[C@@H]32)C1` [Compound 443, 1-((5aR,5bS,7aS,10aS,10bR,12aR)-8-(1H-imidazol-1-yl)-5a,7a-dimethyl-3,4,5,5a,5b,6,7,7a,10,10a,10b,11,12,12a-tetradecahydrocyclopenta[5,6]naphtho[2,1-c]azepin-2(1H)-yl)ethanone] are “U (U means the compound had a percent inhibition of greater than or equal to 32%)” and 10 to 50%.
Turning to `C[C@]12C=CC(=O)C=C1C1(CC1)C[C@@H]1[C@@H]2CC[C@]2(C)C(c3cccnc3)=CC[C@@H]12` [Compound 316, (10R,13S)-10,13-dimethyl-17-(pyridin-3-yl)-7,8,9,11,12,13,14,15-octahydrospiro[cyclopenta[a]phenanthrene-6,1′-cyclopropan]-3(10H)-one], the pIC50 in series [3] (read-out: Biological Example No. 11: CYP21-HEK293 enzymatic assay IC50) is over 8.00; in series [5] it was over 7.96; in series [6] (testosterone, read-out: Biological Example No. 7: CYP17 cellular assay IC50) it was over 7.82. The compound also displayed a half-life at 1 μM in series [4] of 1 to 50 min. Also, the inhibition at 0.001 µM in series [2] (setting [8]) is 10 to 50%.
In the case of `C[C@]12CCC(=O)C=C1C1(CC1)C[C@@H]1[C@@H]2CC[C@]2(C)C(c3cccnc3)=CC[C@@H]12` [Compound 313, (10R,13S)-10,13-dimethyl-17-(pyridin-3-yl)-1,7,8,9,10,11,12,13,14,15-decahydrospiro[cyclopenta[a]phenanthrene-6,1′-cyclopropan]-3(2H)-one], the values for the pIC50 in series [3] (setting [9]), in series [5] (setting [10]) and in series [6] (setting [11]) were over 8.00, over 7.96 and over 7.82, respectively. For the same compound, the half-life at 1 μM in series [4] was 1 to 50 min. The inhibition at 0.001 µM in series [2] (setting [7]) was over 50%.
For the compound `C[C@]12CC[C@H](O)CC1=CC[C@@H]1[C@@H]2CC[C@]2(C)C(n3cncc3C#N)=CC[C@@H]12` [Compound 426, 1-((3S,10R,13S)-3-hydroxy-10,13-dimethyl-2,3,4,7,8,9,10,11,12,13,14,15-dodecahydro-1H-cyclopenta[a]phenanthren-17-yl)-1H-imidazole-5-carbonitrile], the “Biological Example No. 9: CYP11B enzymatic assay % inhibition at 100 nM” value in series [1] was “U (U means the compound had a percent inhibition of greater than or equal to 32%)”. Besides, the inhibition at 0.001 µM in series [2] (setting [8]) was 10 to 50%.
Consider `C[C@]12CC[C@H]3[C@@H](CCC4=CC(=O)C=C[C@@]43C)C1=CC=C2c1cccnc1` [Compound 290, (10R,13S)-10,13-dimethyl-17-(pyridin-3-yl)-6,7,8,9,10,11,12,13-octahydro-3H-cyclopenta[a]phenanthren-3-one], for which the negative logarithm of the IC50 (pIC50) is 7.00 to 8.00 in series [3] (setting [9]), over 7.96 in series [5] (setting [10]) and over 7.82 in series [6] (setting [11]). This compound also registered a half-life at 1 μM in series [4] of 1 to 50 min. The inhibition at 0.001 µM in series [2] (setting [7]) is over 50%.
As for `COC(=O)c1cncn1C1=CCC2C3CC=C4C[C@@H](O)CC[C@]4(C)C3CC[C@]12C` (stereo partly drawn) [Compound 476, methyl 1-((3S,10R,13S)-3-hydroxy-10,13-dimethyl-2,3,4,7,8,9,10,11,12,13,14,15-dodecahydro-1H-cyclopenta[a]phenanthren-17-yl)-1H-imidazole-5-carboxylate], the “Biological Example No. 9: CYP11B enzymatic assay % inhibition at 100 nM” value in series [1] is listed as “na (“na” means the compound was not active under the conditions tested)”. Further, the inhibition at 0.001 µM in series [2] (setting [8]) was 10 to 50%.
`CC1C[C@@H]2[C@H](CC[C@]3(C)C(c4cccnc4)=CC[C@@H]23)[C@@]2(C)CCC(=O)C=C12` (stereo partly drawn) [Compound 309, (10R,13S)-6,10,13-trimethyl-17-(pyridin-3-yl)-6,7,8,9,10,11,12,13,14,15-decahydro-1H-cyclopenta[a]phenanthren-3(2H)-one]: the pIC50 in series [3] (setting [9]) is 7.00 to 8.00; in series [5], over 7.96; in series [6] (setting [11]), over 7.82. This compound also returned a half-life at 1 μM in series [4] of 1 to 50 min. Further, the inhibition at 0.001 µM in series [2] (setting [7]) was over 50%.
As to `C[C@]12CCC(=O)C=C1C(F)CC1C2CC[C@]2(C)C(c3cccnc3)=CCC12` (stereo partly drawn) [D, (10R,13S)-6-fluoro-10,13-dimethyl-17-(pyridin-3-yl)-6,7,8,9,10,11,12,13,14,15-decahydro-1H-cyclopenta[a]phenanthren-3(2H)-one, reference compound], the pIC50 in series [3] (DOC by ELISA, read-out: Biological Example No. 11: CYP21-HEK293 IC50) is under 6.00; in series [5] (human testicular microsome, DHEA by ELISA, read-out: Biological Example No. 4: CYP17 enzymatic assay IC50) it was over 7.96; in series [6] (testosterone by ELISA, 24 hours, read-out: Biological Example No. 7: CYP17 cellular assay IC50), over 7.82. Moreover, the half-life at 1 μM in series [4] lay within 1 to 50 min. Moreover, the inhibition at 0.001 µM in series [2] (1 nM compound, DHEA by ELISA, read-out: Biological Example No. 12: CYP17 percent inhibition at 1 nM) is over 50%.

What is called inhibition is the share of the control response that was lost under treatment. The term pIC50 denotes the negative decadic logarithm of the IC50, by convention in mol/L. Broadly, the half-life is how long it takes for the measured level to halve. A lower half-life goes with rapid decline.
